How the values were obtained:
KRAS^G12V-GppNHp = target: T1, KRAS^G12V-GppNHp (Homo sapiens, UniProt P01116, G12V); assay: SPR binding to KRAS G12V-GppNHp; conditions: 100 μM, run in triplicate
T1 construct: made in house; host or cells: E. coli (pGEX-2T; strain named only for the HRAS plasmids)
Procedure: A BIAcore T100 (GE Healthcare) was used to screen the fragment library for RAS binders. A polyclonal goat anti-GST antibody (GE Healthcare) was immobilized on a CM5 sensor chip (GE Healthcare) by the amine coupling method. To immobilize the antibody on CM5 chip, the chip was first activated by injecting 100 µl mixture of 0.2 M EDC (N-ethyl-N-(dimethylaminopropyl) carbodiimide hydrochloride) and 0.05 M NHS (N-hydroxysuccinimide) at 10 µl/min flow rate. Furthermore, 100 µg/ml anti-GST antibody in 10 mM sodium acetate, pH 5.0 was injected at 5 µl/min for 900 s and immobilized until 20,000 ~ 25,000 RU. After immobilization the chip was immediately inactivated by injecting 1 M ethanolamine, pH 8.5 at 10 µl/min for 600 s. The chip was kept running in the HBS buffer (GE Healthcare) comprising 10 mM HEPES, pH 8.0, 150 mM NaCl. Of all, 5 µg/ml recombinant GST, GST-HRAS^G12V-GTPγS or GST-HRAS^G12V-GDP proteins were injected into flow cell Fc4, Fc2 and Fc3, respectively for trapping through the immobilized anti-GST antibody. The GST-HRAS^G12V-GTPγS, GST-KRAS^G12V-GppNHpp, or GST-HRAS^G12V-GDP proteins were injected at 5 µl/min for 900 s and usually reached approximately 2000–2500 RU. The GST was injected at same flow rate until about 1200–1350 RU which is 0.54 times less than the GST-HRAS^G12V-GTPγS or GST-HRAS-GDP capture amounts, taking into consideration relative molecular weights (GST, 26KDa, GST-RAS, 48KDa, respectively). Before fragment library screening, the running buffer was replaced by 20 mM Tris, pH 8, 150 mM NaCl, 5 mM MgCl2, 5% DMSO. DMSO solvent correction curves were generated by injecting the running buffers with serial concentrations of DMSO ranging from 4.5 to 6%. […] The individual compounds were injected at 30 µl for 60 s at 30 µl/min flow rate over flow cells Fc1, Fc2, Fc3 and Fc4. The captured GST and GST-RAS were removed from the chip by rinsing with 40 µl 10 mM glycine-HCl, pH 2.1 at 20 µl/min flow rate after every 48 compounds sequential injection. The chip was regenerated by injecting new GST and GST-RAS proteins as described above.

[1] = tested on: AKT phosphorylation (Ser473) in DLD-1 cells (KRAS^G13D); assay: Biomarker phosphorylation assay, pAKT, DLD-1; type: cell-based, human; conditions: EGF 10 min
Procedure: Fig. 5 Abd-7 results on RAS-dependent signalling pathways and cell viability. a, b DLD-1 (a) or H358 (b) cells were serum-starved for 24 h, incubated in mono-layer with Abd-7 in a range from 2, 5, 10 and 20 μM for 3 h and stimulated with EGF 10 min. Proteins were extracted and separated by SDS-PAGE and transferred to membranes for Western analysis with anti-pAKT, anti-pERK, anti-pan AKT and anti-pan ERK. Anti-cyclophilin B antibody was the loading control. Signal was developed using standard ECL. c–e Effects of compounds Abd-2, Abd-4, Abd-5, Abd-6, and Abd-7 on the viability of human cancer cells lines was assessed for a 2-D culture of DLD-1 (mutant KRAS^G13D) cells and HT1080 cells (mutant NRAS^Q61K). The cells were treated with a dose range from 0 μM to 20 μ and incubated for 72 h when cell viability was assessed using CellTitreGlo. […] Each experiment was repeated at least three times (a, b) and four times (c, d). Where error bars are presented, they correspond to mean values ± SD of biological repeats
A total of 450,000 DLD1 or 640,000 H358 cells were seeded per well of a six well plate. Approximately, 20 h later, the medium was removed, the cells washed twice with PBS and DMEM without FBS was added and left for 24 h. The medium was removed and 2 ml of DMEM no FBS was added with the appropriate concentration of compound (DMSO, 2, 5, 10 or 20 μM) for 3 h. Cells were stimulated with EGF (50 ng/ml) for 10 min, washed once with PBS and directly lysed in SDS-Tris buffer (1% SDS, 10 mM Tris-HCl pH 7.4) supplemented with protease inhibitors (Sigma) and phosphatase inhibitors (Thermo-Fisher). Cell lysates were sonicated with a Branson Sonifier and the protein concentrations determined by using the Pierce BCA protein assay kit (Thermo-Fisher). Furthermore, 10 μg of protein were resolved on 10 or 12.5% SDS-PAGE and subsequently transferred onto a PVDF membrane (GE). The membrane was blocked (with 10% non-fat milk (Sigma) or 10% BSA (Sigma) in TBS-0.1% Tween20) and incubated overnight with primary antibody at 4 °C. […]

[2] = Caco-2 cell permeability assay; type: in vitro ADME; conditions: human

T1 sequence (P01116 1-188 isoform P01116-2 G12V): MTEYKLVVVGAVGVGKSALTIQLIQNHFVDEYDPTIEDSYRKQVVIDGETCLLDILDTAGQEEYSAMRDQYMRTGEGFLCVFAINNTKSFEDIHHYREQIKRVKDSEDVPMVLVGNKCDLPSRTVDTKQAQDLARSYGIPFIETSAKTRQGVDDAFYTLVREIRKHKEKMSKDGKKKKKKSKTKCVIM

Row | binding to KRAS^G12V-GppNHp (SPR) (KRAS^G12V-GppNHp) | Papp A→B [2] [×10⁻⁶ cm/s] | Papp B→A [2] [×10⁻⁶ cm/s] | SMILES | inhibition of AKT phosphorylation ([1]; DLD-1, 20 μM, 3 h) | concentration at which inhibition of AKT phosphorylation initiates ([1]; DLD-1, starved 24 h, 3 h compound, Western) [µM] | inhibition at 10 µM ([1]; Homo sapiens, DLD-1, 10 μM, 3 h) [%]
1 | binds |  |  | O=C(NCC1COc2ccccc2O1)c1ccco1 (stereo not drawn) [Abd-2] |  |  | 
2 |  | 7.03 | 8.46 | COc1nc(-c2cccc3c2OCCO3)ccc1Nc1ccc(CN(C)C)cc1 [Abd-7] | complete inhibition | 2 | > 50

Source: publication PMC6085350, “Small molecule inhibitors of RAS-effector protein interactions derived using an intracellular antibody fragment” (Nature Communications, 2018)
